The experiment deals with Recombinant human JAK1 catalytic domain (Homo sapiens (Human), UniProt P23458). The experiment in a line: JAK1 kinase assay (Z'-LYTE Tyr 6 Peptide). The following applies: JAK1 kinase assay, 0.3 uM concentration; read-out: inhibition percentage (IR %). Type of experiment: biochemical. The method, then:
JAK1/2/3 kinase assay are performed in vitro using Kit-Tyr 6 Peptide (Invitrogen, Cat. No. PV4122). TYK2 kinase assay are performed in vitro using Z′-LYTE™ Kinase Assay Kit-Tyr 3 Peptide (Invitrogen, Cat. No. PV3192). […] All compounds are initially tested at 8 different concentrations (1 μM down to 0.0003 μM) using a 1:3 serial dilution scheme.

Among the data in US10111875B2, “Pyrrolopyrimidine compounds and uses thereof” (HUTCHISON MEDIPHARMA LIMITED, priority 2010, dated 2018) are inhibition values, retold here.

Sequence of Recombinant human JAK1 catalytic domain (P23458 875-1153): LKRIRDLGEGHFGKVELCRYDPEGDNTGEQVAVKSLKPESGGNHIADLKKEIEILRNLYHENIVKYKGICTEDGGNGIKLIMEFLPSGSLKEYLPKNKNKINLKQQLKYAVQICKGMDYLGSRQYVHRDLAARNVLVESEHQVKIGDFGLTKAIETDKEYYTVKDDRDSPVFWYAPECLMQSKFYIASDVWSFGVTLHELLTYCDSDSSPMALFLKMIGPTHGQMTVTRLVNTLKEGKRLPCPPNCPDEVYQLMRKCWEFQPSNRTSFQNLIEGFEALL

As for `CN(c1ccc(S(=O)(=O)N2CCCC2)cn1)[C@@H]1CCN(c2ncnc3[nH]ccc23)C1` [Compound 247], the inhibition – broadly, the drop in the measured response relative to a control, in per cent – at 0.3 µM was in the range of 50 to 100%.
Next, `CN(c1ccc(-c2ccc(C#N)cc2)cn1)[C@@H]1CCN(c2ncnc3[nH]ccc23)C1` [Compound 146]: 20 to 50%; `CN(c1ccc(C(=O)Nc2ccccc2F)cn1)[C@@H]1CCN(c2ncnc3[nH]ccc23)C1` [Compound 192]: 50 to 100%.
Regarding `CN(c1ccc(-c2nn[nH]n2)cn1)[C@@H]1CCN(c2ncnc3[nH]ccc23)C1` [Compound 160, (R)—N-(1-(7H-pyrrolo[2,3-d]pyrimidin-4-yl)pyrrolidin-3-yl)-N-methyl-5-(2H-tetrazol-5-yl)pyridin-2-amine], the inhibition at 0.3 µM lay within 20 to 50%.
Next, `CN(C(=O)c1ccc(N(C)[C@@H]2CCN(c3ncnc4[nH]ccc34)C2)nc1)c1ccccc1` [Compound 197]: 50 to 100%.
Regarding `CN(c1ccc(NS(=O)(=O)Cc2ccccc2Cl)cn1)[C@@H]1CCN(c2ncnc3[nH]ccc23)C1` [Compound 223], the inhibition at 0.3 µM lay within 50 to 100%.
The same measure for `CN(c1ccc2nc[nH]c2n1)[C@@H]1CCN(c2ncnc3[nH]ccc23)C1` [Compound 163, (R)—N-(1-(7H-pyrrolo[2,3-d]pyrimidin-4-yl)pyrrolidin-3-yl)-N-methyl-3H-imidazo[4,5-b]pyridin-5-amine]: 50 to 100%; for `CN(C(=O)c1cccnc1)[C@@H]1CCN(c2ncnc3[nH]ccc23)C1` [Compound 5]: 20 to 50%; for `C#CCN(C1CCCCC1)[C@@H]1CCN(c2ncnc3[nH]ccc23)C1` [Compound 54]: 20 to 50%.
As to `CN(c1ccc(C#N)cc1Br)[C@@H]1CCN(c2ncnc3[nH]ccc23)C1` [Compound 115], the inhibition at 0.3 µM lay within 50 to 100%.
Turning to `CN(c1cnc(-c2ccn[nH]2)cn1)[C@@H]1CCN(c2ncnc3[nH]ccc23)C1` [Compound 152], the inhibition at 0.3 µM was in the range of 50 to 100%.
Next, `CN(c1ncnc2ccccc12)[C@@H]1CCN(c2ncnc3[nH]ccc23)C1` [Compound 80]: 50 to 100%; `CN([C@@H]1CCN(c2ncnc3[nH]ccc23)C1)S(=O)(=O)c1ccc(C#N)cc1` [Compound 9]: 20 to 50%; `N#Cc1ccc2c(c1)CCN2C1CCN(c2ncnc3[nH]ccc23)C1` (stereo not drawn) [Compound 46]: 50 to 100%.
The same measure for `CN(C(=O)c1cccc(C#N)c1)[C@@H]1CCN(c2ncnc3[nH]ccc23)C1` [Compound 8]: 20 to 50%.
The same measure for `CN(c1ccc(S(=O)(=O)NCC2CC2)cn1)[C@@H]1CCN(c2ncnc3[nH]ccc23)C1` [Compound 235]: 50 to 100%; for `CN([C@@H]1CCN(c2ncnc3[nH]ccc23)C1)S(=O)(=O)c1cccc([N+](=O)[O-])c1` [Compound 12]: 50 to 100%; for `CN(C(=O)CO)[C@@H]1CCN(c2ncnc3[nH]ccc23)C1` [Compound 24]: 50 to 100%.
On to `CN(c1ncc(Br)cn1)[C@@H]1CCN(c2ncnc3[nH]ccc23)C1` [Compound 94], for which the inhibition at 0.3 µM was in the range of 50 to 100%.
The same measure for `CCCN(c1ccc(C#N)cn1)[C@@H]1CCN(c2ncnc3[nH]ccc23)C1` [Compound 98]: 50 to 100%; for `CCN(c1ccc(C#N)cn1)[C@@H]1CCN(c2ncnc3[nH]ccc23)C1` [Compound 126, (R)-6-((1-(7H-pyrrolo[2,3-d]pyrimidin-4-yl)pyrrolidin-3-yl)(ethyl)amino)-nicotinonitrile]: 50 to 100%; for `C#CCN(C1CCCC1)[C@@H]1CCN(c2ncnc3[nH]ccc23)C1` [Compound 39, (R)—N-cyclopentyl-N-(prop-2-ynyl)-1-(7H-pyrrolo[2,3-d]pyrimidin-4-yl)pyrrolidin-3-amine]: 20 to 50%.
Next, `CN(c1ccc(S(=O)(=O)NC2CCOCC2)cn1)[C@@H]1CCN(c2ncnc3[nH]ccc23)C1` [Compound 259]: 50 to 100%.
Next, `Cc1nc(N(C)[C@@H]2CCN(c3ncnc4[nH]ccc34)C2)ccc1C#N` [Compound 155]: 50 to 100%; `CN(c1ccc(C#N)cc1N)[C@@H]1CCN(c2ncnc3[nH]ccc23)C1` [Compound 166, (R)-4-((1-(7H-pyrrolo[2,3-d]pyrimidin-4-yl)pyrrolidin-3-yl)(methyl)amino)-3-aminobenzonitrile]: 20 to 50%; `CN(c1ccc(C(=O)NC[C@H](O)c2ccccc2)cc1Cl)[C@@H]1CCN(c2ncnc3[nH]ccc23)C1` [Compound 189]: 20 to 50%.
Turning to `CN(c1ccc(C#N)cc1C(F)(F)F)[C@@H]1CCN(c2ncnc3[nH]ccc23)C1` [Compound 109], the inhibition at 0.3 µM fell in the range of 20 to 50%.
Next, `CCOc1cnc(N(C)[C@@H]2CCN(c3ncnc4[nH]ccc34)C2)cn1` [Compound 136]: 50 to 100%; `CN(c1ccc(C#N)cn1)[C@H]1CCN(c2ncnc3[nH]ccc23)C1` [Compound 102]: 50 to 100%; `CN(c1ncc(C#N)cc1Br)[C@@H]1CCN(c2ncnc3[nH]ccc23)C1` [Compound 99]: 50 to 100%.
Next, `CN(c1ccc2nn[nH]c2n1)[C@@H]1CCN(c2ncnc3[nH]ccc23)C1` [Compound 167, (R)—N-(1-(7H-pyrrolo[2,3-d]pyrimidin-4-yl)pyrrolidin-3-yl)-N-methyl-3H-[1,2,3]triazolo[4,5-b]pyridin-5-amine]: 50 to 100%.
The same measure for `CN(c1ccc(C(=O)Nc2cccc(F)c2)cn1)[C@@H]1CCN(c2ncnc3[nH]ccc23)C1` [Compound 177]: 50 to 100%.
With `C[C@H](O)CNS(=O)(=O)c1ccc(N(C)[C@@H]2CCN(c3ncnc4[nH]ccc34)C2)nc1` [Compound 245], the inhibition at 0.3 µM was in the range of 50 to 100%.
As for `CN(CCC#N)[C@@H]1CCN(c2ncnc3[nH]ccc23)C1` [Compound 64], the inhibition at 0.3 µM lay within 50 to 100%.
The same measure for `CN(c1cc(F)cc(F)c1C#N)[C@@H]1CCN(c2ncnc3[nH]ccc23)C1` [Compound 118]: 20 to 50%; for `N#CCN(C1CC1)[C@@H]1CCN(c2ncnc3[nH]ccc23)C1` [Compound 55]: 50 to 100%; for `CCNS(=O)(=O)c1ccc(N(C)[C@@H]2CCN(c3ncnc4[nH]ccc34)C2)nc1` [Compound 240]: 50 to 100%.
Next, `CN(c1ccc(C#N)cc1)[C@@H]1CCN(c2ncnc3[nH]ccc23)C1` [Compound 104]: 50 to 100%; `N#CCN(C1CCCC1)[C@@H]1CCN(c2ncnc3[nH]ccc23)C1` [Compound 45]: 50 to 100%.
Next, `CN(c1ccc(S(=O)(=O)Nc2ccc(F)cc2)cn1)[C@@H]1CCN(c2ncnc3[nH]ccc23)C1` [Compound 253]: 50 to 100%.
On to `CN(c1ccc(S(C)(=O)=O)cn1)[C@@H]1CCN(c2ncnc3[nH]ccc23)C1` [Compound 61], for which the inhibition at 0.3 µM was in the range of 50 to 100%.
The same measure for `CC(C)S(=O)(=O)N(C)[C@@H]1CCN(c2ncnc3[nH]ccc23)C1` [Compound 49]: 50 to 100%; for `CN(c1ccc(C(=O)NCCO)cn1)[C@@H]1CCN(c2ncnc3[nH]ccc23)C1` [Compound 190]: 50 to 100%; for `CN(c1ccc(NC(=O)c2ccccc2Cl)cn1)[C@@H]1CCN(c2ncnc3[nH]ccc23)C1` [Compound 227]: 50 to 100%.
The same measure for `COc1cc2ncnc(N(C)[C@@H]3CCN(c4ncnc5[nH]ccc45)C3)c2cc1OC` [Compound 86]: 50 to 100%.
